The subject of one data set is ZIKV (SV0010/15). Put plainly: Antiviral efficacy (EC50) in virus infected LLC/MK2 cells, plaque assay. In kind it is cell-based, Zika virus.
In the next data set the test system is DENV4 (c0036). The data set is described as above. In kind it is cell-based, Dengue virus.
For data set [1], the system named is BHK-21/DENV2 replicon cells. Put plainly: Replicon inhibition assay, RT-qPCR of replicon RNA. In kind it is cell-based. As to conditions: Dengue virus, DENV2, BHK-21, 72 h, read-out: inhibition of DENV2 replicon replication. Here is the method: Next, we studied FV13 inhibition in a DENV2 replicon replication system to investigate whether translation and replication could be implicated as drug targets. BHK-21/DENV2 replicon cells[28] were treated with 5 and 10 µM FV13 and incubated for 72 h before measuring replication efficiency by quantifying replicon RNA. Ribavirin, a known dengue virus replication inhibitor[29], was used as a positive control.
(§1) After supernatant collection, the remaining cells in experimental plates were extracted for viral RNAs using TRIzol reagent (Invitrogen, California, USA) according to the manufacturer’s protocol. The samples were loaded into the Direct-zol™ RNA MiniPrep (Zymo research, California, USA) and quantified by Nanodrop spectrophotometry (Eppendorf, New York, USA). The RT-qPCR was performed with a Step-OnePlus Real-Time PCR System (Applied Biosystems, California, USA.) with 1 × Power SYBRGreen PCR Master Mix, 400 nM each of capsid primers[40] or 250 nM of NS1 primers[41] and 0.1 µg of total RNA. The reactions were then cycled at 48 °C 30 min and 95 °C 10 min, followed by 45 cycles of 95 °C for 20 s (denaturation), 55 °C for 30 s (annealing), 72 °C for 30 s (extension). Each sample was analyzed in triplicated and results were confirmed by two independent experiments.
BHK-21 cells expressing a DENV2 replicon (BHK-21/DENV2) were maintained in minimal essential medium (MEM) supplemented with 10% fetal bovine serum (FBS), and 0.3 mg/ml G418 (Bio Basic Canada, Ontario, Canada). The protocol was adapted from Boonyasuppayakorn et al., 2014 [28]. Briefly, cells (5 × 10^4/well) were seeded into 24-well plates and were incubated for 1 day at 37 °C in a humidified CO2 chamber followed by addition of the compounds in 1% DMSO at final concentrations of 5 µM and 10 µM. DMSO (1%) alone was used as the no-inhibitor control (0% inhibition) and the reference compound was ribavirin (TargetMol, Massachusetts, USA) at a final concentration of 5 µM or 10 µM. Cells were incubated at 37 °C for 72 h and lysed to quantify DENV2 replicons by RT-qPCR. Data were reported as percent inhibition compared with ribavirin, as a reference compound and DMSO, 0% inhibition. Results were confirmed by three independent experiments.

The subject of another data set is DENV2. Put plainly: Time-of-drug addition study (TOA) in DENV2 infected LLC/MK2 cells. In kind it is cell-based, Dengue virus. Particulars: 10 μM; for decrease of DENV2 plaque titer from DMSO-treated baseline: supernatants. Here is the method:
To access the stage of the viral life cycle affected by FV13, we performed a time-of-addition assay. Briefly, FV13 (10 μM) was added to DENV2 infected LLC/MK2 cells at various time points as described in Methods section. DMSO was added in parallel as a control treatment. Supernatants were collected for plaque titration and cell lysates were collected for RT-qPCR analysis. […] If the drug was added at 12 hpi or later, only 1-log decrease was observed (Fig. 4A,B). […] The first molecular target could interact with FV13 earlier than 2 hpi and its effect was still visible until 8–10 hpi. The other target could locate at late post-replication steps such as assembly, maturation, or release because a 1-log discrepancy between plaque and RT-qPCR titers indicated genome replication was unaffected. Further investigations will reveal insights into the actual target of this compound.
as §1
LLC/MK2 cells were seeded in 24-well plate and incubated as previously described. Cells were then infected with DENV2 (M.O.I. of 0.1). FV13 (10 µM) was added at various time points, early time points (−1, 0, 2, 4, 6, 8, 10, and 12 hpi) and late time points (12, 14, 16, 20, and 24 hpi) and the plates were incubated for 5 days. Supernatants were collected to determine the viral titer by plaque titration assay and the cells were collected to determine viral RNA content by RT-qPCR. Results were confirmed by three independent experiments in which each time point was tested in duplicate.

The test system of the next data set is Vero cells. Kind of data set: Cytotoxicity study (CellTiter 96 AQueous One) in Vero cells. In kind it is cell-based. Particulars: 10 and 25 µM; in words. Here is the method: (§2) The cytotoxicity of active compounds was tested on LLC-MK2, Vero, THP-1, HEK-293, HepG2 and C6/36 cell lines. Each cell line was seeded at 1 × 10^4 cells per well in 96-well plates and incubated overnight. The compounds were added at the indicated concentrations and the cells were incubated for 48 h, unless indicated otherwise. Cell viability was analyzed using CellTiter 96® AQueous One Solution Cell Proliferation Assay kit (Promega, Wisconsin-Madison, USA) according to manufacturer’s protocol. The plate was read at the A 450 in a VICTORTM × 3 microplate reader (PerkinElmer, Massachusetts, USA). Percent cell viability in compound-treated wells was calculated using reference DMSO-treated cells as a 100% cell viability control. The CC50 values of LLC/MK2 cells were calculated using nonlinear regression analysis. Results were reported as means and standard error of the means (SEM) of CC50 values of three independent experiments in which each drug concentration was tested in triplicate.

Test in data set [2]: as above
Particulars: African green monkey, Vero cells, 48 h, read-out: Cells viability (%, means ± SEM) Vero. In kind it is cell-based. Here is the method: as §2

Data set [3] is described as follows: Cytotoxicity study (CellTiter 96 AQueous One) in THP-1 cells. Particulars: human, THP-1 cells, read-out: Cells viability (%, means ± SEM) THP-1. Type of data set: cell-based. Here is the method: as §2
In the next data set the test system is DENV1 (16007). Kind of data set: Antiviral efficacy (EC50) in virus infected LLC/MK2 cells, plaque assay. Type of data set: cell-based, Dengue virus.

Method for DENV1 (16007): (§3) Compound at various concentrations were added to virus infected LLC/MK2 cells and viral titers were accessed by plaque titration of supernatants as previously described.
(§4) LLC/MK2 cells were seeded at 5 × 10^4 cells into each well of 24-well plate and incubated overnight at 37 °C under 5% CO2. Cells were infected with DENV2 at the multiplicity of infection (M.O.I.) of 0.1, unless indicated otherwise, for 1 h with gentle rocking every 15 min. Cells were washed with phosphate buffer saline (PBS) and incubated with 1 ml of MEM medium supplemented with 1% FBS as previously described. The compounds were prepared in dimethylsulfoxide (DMSO) at the indicated concentrations before addition to viral infected cells. Supernatants were collected after 5 day incubation and analyzed by plaque titration[9].
(§5) Compounds were prepared in DMSO at 8–12 different concentrations and added to virus infected cells as previously described. Supernatants were collected and the EC50 values were calculated from nonlinear regression analysis.
Method for DENV4 (c0036): as §3, §4, §5
Method for ZIKV (SV0010/15): as §3, §4, §5

As for `O=c1cc(-c2ccccc2)oc2c(Br)c(O)c(Br)c(O)c12` [FV13, 6,8-dibromo-5,7-dihydroxyflavone], the “S.I. Selectivity index (CC50/EC50)” value in the data set on ZIKV (SV0010/15) (CC50 in LLC/MK2) was 27.02; with DENV4 (c0036) (DENV4 (c0036), CC50 in LLC/MK2), 25.12; in the data set on DENV1 (16007) (DENV1 (16007), CC50 in LLC/MK2), 19.42. Besides, the EC50 (in general, the midpoint of the concentration-response curve) in the data set with ZIKV (SV0010/15) (Zika virus, LLC/MK2, plaque assay in 24-well plates) was determined as 1.65 ± 0.86 µM; with DENV4 (c0036) (Dengue virus, DENV4, LLC-MK2), 1.78 ± 0.72 µM; in the data set on DENV1 (16007) (Dengue virus, DENV1, LLC-MK2) it was 2.3 ± 1.04 µM. Also, in data set [1], the inhibition (as a rule, the share of the control response that was lost under treatment) at 5 µM stood at 83.4 ± 2.04%. In data set [1], the inhibition at 10 µM turned out to be 82.7 ± 4.01%. The “decrease of DENV2 plaque titer from DMSO-treated baseline” value with DENV2 (drug added at 12 hpi or later) turned out to be 1 log; with DENV2 (drug added between 2–10 hpi) it was 2 log. The “intracellular viral RNA versus DMSO-treated samples” value in the data set on DENV2 (drug addition at 12–24 hpi, RT-qPCR, in words) was “no titer difference”. Further, the “decrease of intracellular viral RNA” value with DENV2 (drug addition between 2–8 hpi, RT-qPCR) is recorded as 1 log. In the data set on Vero cells, the “sensitivity of Vero cells to the compound” value is reported as “very sensitive”. Also, the figures for the viability at 48 h, 10 µM in data set [2] (10 μM) and in data set [3] (10 μM) were 53.1 ± 4.9% and greater than 100%, respectively. The figures for the viability at 48 h, 25 µM in data set [2] (25 μM) and in data set [3] (25 μM) were 42.6 ± 0.65% and 86.9 ± 2.1%, respectively.

Values taken from article PMC5651866, “Halogenated Chrysins Inhibit Dengue and Zika Virus Infectivity” (Scientific Reports, 2017).
